Reference: patent US9840495B2, “Oxindole derivatives carrying a piperidyl-substituted azetidinyl substituent and use thereof for treating vasopressine-related diseases” (AbbVie Deutschland GmbH & Co. KG, priority 2013, dated 2017)
pKi: −log10 of the molar value.

How the values were obtained:
[1] = target: T1, human vasopressin V1b receptor (Homo sapiens, UniProt P47901); experiment: biochemical
T1 sequence (P47901 1-424): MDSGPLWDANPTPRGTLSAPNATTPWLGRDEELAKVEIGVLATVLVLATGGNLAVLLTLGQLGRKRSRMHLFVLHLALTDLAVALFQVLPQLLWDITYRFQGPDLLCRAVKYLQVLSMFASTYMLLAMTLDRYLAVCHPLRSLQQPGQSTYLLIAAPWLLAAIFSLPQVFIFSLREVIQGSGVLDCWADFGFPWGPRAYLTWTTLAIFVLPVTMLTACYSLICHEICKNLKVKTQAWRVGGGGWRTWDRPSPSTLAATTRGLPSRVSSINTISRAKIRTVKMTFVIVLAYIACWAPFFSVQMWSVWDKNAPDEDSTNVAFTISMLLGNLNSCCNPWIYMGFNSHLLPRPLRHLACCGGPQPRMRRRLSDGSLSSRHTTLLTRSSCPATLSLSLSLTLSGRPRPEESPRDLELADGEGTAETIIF

[2] = target: human vasopressin V1a receptor (Homo sapiens, UniProt P37288); experiment: Vasopressin V1a receptor binding assay (125I-AVP displacement, CHO-K1 membranes); details: selectivity quotient, human V1a vs human V1b receptor binding
Sequence of human vasopressin V1a receptor (P37288 whole entry): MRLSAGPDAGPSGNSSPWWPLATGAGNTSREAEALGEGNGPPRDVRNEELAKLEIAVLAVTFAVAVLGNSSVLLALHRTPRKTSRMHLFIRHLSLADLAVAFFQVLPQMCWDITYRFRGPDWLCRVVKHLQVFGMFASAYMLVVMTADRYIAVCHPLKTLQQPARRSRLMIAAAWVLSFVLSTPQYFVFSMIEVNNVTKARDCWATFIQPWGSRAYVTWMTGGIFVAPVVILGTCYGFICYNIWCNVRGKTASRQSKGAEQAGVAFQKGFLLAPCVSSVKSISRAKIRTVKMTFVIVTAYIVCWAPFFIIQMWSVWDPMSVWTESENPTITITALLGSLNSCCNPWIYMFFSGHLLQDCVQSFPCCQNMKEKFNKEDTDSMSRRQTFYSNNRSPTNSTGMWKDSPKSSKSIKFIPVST

Row | Compound | pKi [1] | Ki(h-V1a)/Ki(h-V1b) [2]
1 | COc1ncccc1[C@]1(NC(=O)N2CC(N3CCC(N(C)C4COC4)CC3)C2)C(=O)N(S(=O)(=O)c2ccc(F)cc2F)c2ccc(C#N)cc21 [Example 33, (S)—N-(5-Cyano-1-((2,4-difluorophenyl)sulfonyl)-3-(2-methoxypyridin-3-yl)-2-oxoindolin-3-yl)-3-(4-(methyl(oxetan-3-yl)amino)piperidin-1-yl)azetidine-1-carboxamide] | 7.00 to 8.00 | + (10-<25)
2 | CCOc1ncccc1[C@]1(NC(=O)N2CC(N3CCC(N(C)C4COC4)CC3)C2)C(=O)N(S(=O)(=O)c2ccc(OC)cc2OC)c2cc(F)c(F)cc21 [Example 11, N-[(3S)-1-[(2,4-Dimethoxyphenyl)sulfonyl]-3-(2-ethoxypyridin-3-yl)-5,6-difluoro-2-oxo-2,3-dihydro-1H-indol-3-yl]-3-{4-[methyl(oxetan-3-yl)amino]piperidin-1-yl}azetidine-1-carboxamide] | 8.00 to 9.00 | ++ (25-75)
3 | COc1cc(F)ccc1S(=O)(=O)N1C(=O)[C@@](NC(=O)N2CC(N3CCC(N(C)C4COC4)CC3)C2)(c2cccnc2OC)c2cc(C#N)ccc21 [Example 30, (S)—N-(5-Cyano-1-((4-fluoro-2-methoxyphenyl)sulfonyl)-3-(2-methoxypyridin-3-yl)-2-oxoindolin-3-yl)-3-(4-(methyl(oxetan-3-yl)amino)piperidin-1-yl)azetidine-1-carboxamide] | 8.00 to 9.00 | + (10-<25)
4 | COc1ccc(S(=O)(=O)N2C(=O)[C@@](NC(=O)N3CC(N4CCC(NC5COC5)CC4)C3)(c3cccnc3OC)c3cc(C#N)ccc32)c(OC)c1 [Example 20, (S)—N-(5-Cyano-1-((2,4-dimethoxyphenyl)sulfonyl)-3-(2-methoxypyridin-3-yl)-2-oxoindolin-3-yl)-3-(4-(oxetan-3-ylamino)piperidin-1-yl)azetidine-1-carboxamide] | 8.00 to 9.00 | + (10-<25)
5 | CCOc1ncccc1[C@]1(NC(=O)N2CC(N3CCC(N4CC(F)(F)C4)CC3)C2)C(=O)N(S(=O)(=O)c2ccc(OC)cc2OC)c2ccc(C#N)cc21 [Example 39, (S)—N-(5-Cyano-1-((2,4-dimethoxyphenyl)sulfonyl)-3-(2-ethoxypyridin-3-yl)-2-oxoindolin-3-yl)-3-(4-(3,3-difluoroazetidin-1-yl)piperidin-1-yl)azetidine-1-carboxamide] | 7.00 to 8.00 | +++ (>75)
6 | CCOc1ncccc1[C@]1(NC(=O)N2CC(N3CCC(N(C)CCOC)CC3)C2)C(=O)N(S(=O)(=O)c2ccc(OC)cc2OC)c2ccc(C#N)cc21 [Example 15, (S)—N-(5-Cyano-1-((2,4-dimethoxyphenyl)sulfonyl)-3-(2-ethoxypyridin-3-yl)-2-oxoindolin-3-yl)-3-(4-((2-methoxyethyl)(methyl)amino)piperidin-1-yl)azetidine-1-carboxamide] | 8.00 to 9.00 | +++ (>75)
7 | CCN(C1CCN(C2CN(C(=O)N[C@@]3(c4cccnc4OC)C(=O)N(S(=O)(=O)c4ccc(OC)cc4OC)c4ccc(C#N)cc43)C2)CC1)C1COC1 [Example 23, (S)—N-(5-Cyano-1-((2,4-dimethoxyphenyl)sulfonyl)-3-(2-methoxypyridin-3-yl)-2-oxoindolin-3-yl)-3-(4-(ethyl(oxetan-3-yl)amino)piperidin-1-yl)azetidine-1-carboxamide] | 8.00 to 9.00 | ++ (25-75)
8 | CCOc1ncccc1[C@]1(NC(=O)N2CC(N3CCC(N4CCOCC4)CC3)C2)C(=O)N(S(=O)(=O)c2ccc(OC)cc2OC)c2cc(F)c(C#N)cc21 [Example 9, (S)—N-(5-Cyano-1-((2,4-dimethoxyphenyl)sulfonyl)-3-(2-ethoxypyridin-3-yl)-6-fluoro-2-oxoindolin-3-yl)-3-(4-morpholinopiperidin-1-yl)azetidine-1-carboxamide] | > 9.00 | ++ (25-75)
9 | CCOc1ncccc1[C@]1(NC(=O)N2CC(N3CCC(N4CC(O)C4)CC3)C2)C(=O)N(S(=O)(=O)c2ccc(OC)cc2OC)c2ccc(C#N)cc21 [Example 43, (S)—N-(5-Cyano-1-((2,4-dimethoxyphenyl)sulfonyl)-3-(2-ethoxypyridin-3-yl)-2-oxoindolin-3-yl)-3-(4-(3-hydroxyazetidin-1-yl)piperidin-1-yl)azetidine-1-carboxamide] | 8.00 to 9.00 | +++ (>75)
10 | CCOc1ncccc1[C@]1(NC(=O)N2CC(N3CCC(N4CCC(OC)CC4)CC3)C2)C(=O)N(S(=O)(=O)c2ccc(OC)cc2OC)c2ccc(C#N)cc21 [Example 42, (S)—N-(5-Cyano-1-((2,4-dimethoxyphenyl)sulfonyl)-3-(2-ethoxypyridin-3-yl)-2-oxoindolin-3-yl)-3-(4-methoxy-[1,4′-bipiperidin]-1′-yl)azetidine-1-carboxamide] | 8.00 to 9.00 | +++ (>75)
11 | COc1ccc(S(=O)(=O)N2C(=O)[C@@](NC(=O)N3CC(N4CCC(N5CCOCC5)CC4)C3)(c3cc(OC)ccc3OC)c3cc(C#N)ccc32)c(OC)c1 [Example 45, (S)—N-(5-Cyano-3-(2,5-dimethoxyphenyl)-1-((2,4-dimethoxyphenyl)sulfonyl)-2-oxoindolin-3-yl)-3-(4-morpholinopiperidin-1-yl)azetidine-1-carboxamide] | > 9.00 | + (10-<25)
12 | COc1ccc(S(=O)(=O)N2C(=O)[C@@](NC(=O)N3CC(N4CCC(N(C)C5COC5)CC4)C3)(c3cccnc3OC)c3cc(C#N)ccc32)c(OC)c1 [Example 4, (S)—N-(5-Cyano-1-((2,4-dimethoxyphenyl)sulfonyl)-3-(2-methoxypyridin-3-yl)-2-oxoindolin-3-yl)-3-(4-(methyl(oxetan-3-yl)amino)piperidin-1-yl)azetidine-1-carboxamide] | 8.00 to 9.00 | +++ (>75)

Second part, the molecule after the results:

Row | pKi [1] | Ki(h-V1a)/Ki(h-V1b) [2] | Compound
13 | > 9.00 | +++ (>75) | CCOc1ncccc1[C@]1(NC(=O)N2CC(N3CCC(N(C)C4COC4)CC3)C2)C(=O)N(S(=O)(=O)c2ccc(OC)cc2OC)c2ccc(C#N)cc21 [Example 2, (S)—N-(5-cyano-1-((2,4-dimethoxyphenyl)sulfonyl)-3-(2-ethoxypyridin-3-yl)-2-oxoindolin-3-yl)-3-(4-(methyl(oxetan-3-yl)amino)piperidin-1-yl)azetidine-1-carboxamide]
14 | > 9.00 | ++ (25-75) | CCOc1ncccc1[C@]1(NC(=O)N2CC(N3CCC(N4CCOCC4)CC3)C2)C(=O)N(S(=O)(=O)c2ccc(OC)cc2)c2ccc(C#N)cc21 [Example 25, (S)—N-(5-Cyano-3-(2-ethoxypyridin-3-yl)-1-((4-methoxyphenyl)sulfonyl)-2-oxoindolin-3-yl)-3-(4-morpholinopiperidin-1-yl)azetidine-1-carboxamide]
15 | > 9.00 | +++ (>75) | CCOc1ncccc1[C@]1(NC(=O)N2CC(N3CCC(N4CCC(F)(F)CC4)CC3)C2)C(=O)N(S(=O)(=O)c2ccc(OC)cc2OC)c2ccc(C#N)cc21 [Example 40, (S)—N-(5-Cyano-1-((2,4-dimethoxyphenyl)sulfonyl)-3-(2-ethoxypyridin-3-yl)-2-oxoindolin-3-yl)-3-(4,4-difluoro-[1,4′-bipiperidin]-1′-yl)azetidine-1-carboxamide]
16 | > 9.00 | +++ (>75) | COc1ccc(S(=O)(=O)N2C(=O)[C@@](NC(=O)N3CC(N4CCC(N5CCOCC5)CC4)C3)(c3cccnc3OC)c3cc(C#N)ccc32)c(OC)c1 [Example 3, (S)—N-(5-Cyano-1-((2,4-dimethoxyphenyl)sulfonyl)-3-(2-methoxypyridin-3-yl)-2-oxoindolin-3-yl)-3-(4-morpholinopiperidin-1-yl)azetidine-1-carboxamide]
17 | > 9.00 | +++ (>75) | CCOc1ncccc1[C@]1(NC(=O)N2CC(N3CCC(N4CC(C5COC5)C4)CC3)C2)C(=O)N(S(=O)(=O)c2ccc(OC)cc2OC)c2ccc(C#N)cc21 [Example 18, (S)—N-(5-Cyano-1-((2,4-dimethoxyphenyl)sulfonyl)-3-(2-ethoxypyridin-3-yl)-2-oxoindolin-3-yl)-3-(4-(3-(oxetan-3-yl)azetidin-1-yl)piperidin-1-yl)azetidine-1-carboxamide]
18 | > 9.00 | +++ (>75) | CCOc1ncccc1[C@]1(NC(=O)N2CC(N3CCC(N4CC5(COC5)C4)CC3)C2)C(=O)N(S(=O)(=O)c2ccc(OC)cc2OC)c2ccc(C#N)cc21 [Example 19, (S)-3-(4-(2-Oxa-6-azaspiro[3.3]heptan-6-yl)piperidin-1-yl)-N-(5-cyano-1-((2,4-dimethoxyphenyl)sulfonyl)-3-(2-ethoxypyridin-3-yl)-2-oxoindolin-3-yl)azetidine-1-carboxamide]
19 | > 9.00 | ++ (25-75) | COc1ccc(S(=O)(=O)N2C(=O)[C@@](NC(=O)N3CC(N4CCC(N(C)C5COC5)CC4)C3)(c3cc(OC)ccc3OC)c3cc(C#N)ccc32)c(OC)c1 [Example 46, (S)—N-(5-Cyano-3-(2,5-dimethoxyphenyl)-1-((2,4-dimethoxyphenyl)sulfonyl)-2-oxoindolin-3-yl)-3-(4-(methyl(oxetan-3-yl)amino)piperidin-1-yl)azetidine-1-carboxamide]
20 | > 9.00 | +++ (>75) | CCOc1ncccc1[C@]1(NC(=O)N2CC(N3CCC(N(C)C4COC4)CC3)C2)C(=O)N(S(=O)(=O)c2ccc(OC)cc2OC)c2cc(F)c(C#N)cc21 [Example 10, (S)—N-(5-Cyano-1-((2,4-dimethoxyphenyl)sulfonyl)-3-(2-ethoxypyridin-3-yl)-6-fluoro-2-oxoindolin-3-yl)-3-(4-(methyl(oxetan-3-yl)amino)piperidin-1-yl)azetidine-1-carboxamide]
